The values below are quoted from earlier work in patent US20090202668A1, “Use of a polyphenol in the treatment of the metabolic syndrome and endothelial dysfunction or other vascular sequellae” (priority 2006, published 2009).

Each structure is given as a SMILES string.

This data set concerns the target T1, CETP (Homo sapiens, UniProt P11597).
T1 sequence (P11597 18-493): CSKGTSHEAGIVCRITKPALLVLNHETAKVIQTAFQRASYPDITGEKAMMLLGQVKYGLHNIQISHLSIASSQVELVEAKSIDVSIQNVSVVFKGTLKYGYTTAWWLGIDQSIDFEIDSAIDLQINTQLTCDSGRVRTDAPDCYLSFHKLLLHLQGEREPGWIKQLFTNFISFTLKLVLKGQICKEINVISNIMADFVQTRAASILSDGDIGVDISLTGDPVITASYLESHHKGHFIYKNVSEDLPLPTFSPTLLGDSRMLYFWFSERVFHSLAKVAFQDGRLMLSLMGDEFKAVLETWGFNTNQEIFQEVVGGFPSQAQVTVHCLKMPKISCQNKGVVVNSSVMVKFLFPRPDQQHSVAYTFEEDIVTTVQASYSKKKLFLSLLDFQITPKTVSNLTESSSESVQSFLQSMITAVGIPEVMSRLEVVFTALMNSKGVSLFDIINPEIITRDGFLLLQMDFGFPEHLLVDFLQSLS

On to `CCOC(=O)N1c2ccc(C(F)(F)F)cc2[C@@H](N(Cc2cc(C(F)(F)F)cc(C(F)(F)F)c2)C(=O)OC)C[C@H]1CC` [Torcetrapib], for which the side effects result is “major side effects such as death”. The “results of HDL-increasing treatment” value (CETP-inhibitor) is given as “poor results”.
